Assay results published in doi:10.1101/2025.03.14.643404, “A Bivalent Molecular Glue Linking Lysine Acetyltransferases to Oncogene-induced Cell Death” (bioRxiv, 2025).

Legend:
DB = experiment: Cell viability, 7 days compound treatment (Cell Titer-Glo), DB; format: cell-based; details: Homo sapiens, 168 h, read-out: IC50 of antiproliferation
Procedure: Fifteen thousand cells were seeded in 100 μl of media per well of a U-bottom 96-well plate and treated with digitally dispensed drugs (Tecan D300e) for the indicated times and doses. After 96 hours, plates were centrifuged for 750 rpm for 3 minutes, and old media was exchanged for 100 μl of fresh media. Drug treatment was then repeated at the indicated doses. 72 hours following media change, cells were transferred to 96 well flat-bottom opaque plates. Viability was measured by adding 25 μL Cell Titer-Glo reagent (Promega G7570) to each well and luminescence was measured (BMG Labtech Pherastar FS). The background luminescence was subtracted, and the signal was normalized to DMSO-treated cells. IC50 measurements on cell lines were calculated using at least three biological replicates by separate cell passages. Fit of dose–response curves to data and statistical analysis was performed using GraphPad PRISM using the four-parameter log(inhibitor) vs response function.

p300 = molecular target: T1, p300 (Homo sapiens, UniProt Q09472); experiment: Global proteome profiling in SUDHL5, p300 abundance; format: cell-based; details: SUDHL5, 10 nM, 24 hours
T1 construct: endogenous in cells; host or cells: SUDHL5
Procedure: (§1) SUDHL5 cells (6M cells in 6 mL RPMI-1640 media supplemented with 10% FBS and 1x pen-strep) were treated with 0.1% DMSO, 10 nM TCIP3, 10 nM Neg1, 10 nM Neg2, or 250 nM dCBP1 (1000x stocks in DMSO for final 0.1% DMSO concentration) in 3 biologically independent replicates. The cells were washed twice with TBS (50 mM Tris, pH 8.5, and 150 mM NaCl) and then stored at −80 °C until use.
(§2) Lysis was performed by first thermally denaturing the samples in residual wash buffer for 5 min at 95 °C. Fresh Lysis Buffer (8 M urea, 150 mM NaCl, and 100 mM HEPES, pH 8.0, in MS-grade water) was then added, and the lysates were homogenized using needle ultrasonication and then normalized to 30 μg of 2 mg/mL by diluting with Lysis Buffer via a Bradford protein concentration assay (Bio-Rad 5000006) in technical duplicates. […]
(§3) Samples were then desalted using SOLAμ SPE HRP Peptide Desalting columns (Thermo 60209–001) with a Positive Pressure Manifold and all MS-grade reagents. […] The samples were then reconstituted in 0.1% FA in water and then analyzed by LC-MS/MS (see below).
(§4) The reconstituted desalted peptides were then analyzed using a nanoElute 2 UHPLC (Bruker Daltonics, Bremen, Germany) coupled to a timsTOF HT (Bruker Daltonics, Bremen, Germany) via a CaptiveSpray nano-electrospray source. […]

CBP = molecular target: T2, CBP (Homo sapiens, UniProt Q92793); experiment: Global proteome profiling in SUDHL5, CBP abundance; format: cell-based; details: SUDHL5, 10 nM, 24 hours
T2 construct: endogenous in cells; host or cells: SUDHL5
Procedure: as §1, §2, §3, §4

c-MYC mRNA = experiment: RT-qPCR of c-MYC transcripts in SUDHL5; format: cell-based, human; details: SUDHL5, 1 nM
Procedure: Cells were plated at 1M/mL and harvested in TRIsure (Bioline 38033). RNA was extracted using Direct-zol RNA MicroPrep columns (Zymo R2062) treated with DNAseI. cDNA was prepared (Meridian Bioscience BIO-65054) and used for qPCR (Meridian Bioscience BIO-94050) using an AppliedBiosystems QuantStudio 6Pro. Primer sequences were the following:
• c-MYC fwd: […]; • c-MYC rev: […]; • GAPDH fwd: […]; • GAPDH rev: […].

T2 sequence (Q92793 whole entry): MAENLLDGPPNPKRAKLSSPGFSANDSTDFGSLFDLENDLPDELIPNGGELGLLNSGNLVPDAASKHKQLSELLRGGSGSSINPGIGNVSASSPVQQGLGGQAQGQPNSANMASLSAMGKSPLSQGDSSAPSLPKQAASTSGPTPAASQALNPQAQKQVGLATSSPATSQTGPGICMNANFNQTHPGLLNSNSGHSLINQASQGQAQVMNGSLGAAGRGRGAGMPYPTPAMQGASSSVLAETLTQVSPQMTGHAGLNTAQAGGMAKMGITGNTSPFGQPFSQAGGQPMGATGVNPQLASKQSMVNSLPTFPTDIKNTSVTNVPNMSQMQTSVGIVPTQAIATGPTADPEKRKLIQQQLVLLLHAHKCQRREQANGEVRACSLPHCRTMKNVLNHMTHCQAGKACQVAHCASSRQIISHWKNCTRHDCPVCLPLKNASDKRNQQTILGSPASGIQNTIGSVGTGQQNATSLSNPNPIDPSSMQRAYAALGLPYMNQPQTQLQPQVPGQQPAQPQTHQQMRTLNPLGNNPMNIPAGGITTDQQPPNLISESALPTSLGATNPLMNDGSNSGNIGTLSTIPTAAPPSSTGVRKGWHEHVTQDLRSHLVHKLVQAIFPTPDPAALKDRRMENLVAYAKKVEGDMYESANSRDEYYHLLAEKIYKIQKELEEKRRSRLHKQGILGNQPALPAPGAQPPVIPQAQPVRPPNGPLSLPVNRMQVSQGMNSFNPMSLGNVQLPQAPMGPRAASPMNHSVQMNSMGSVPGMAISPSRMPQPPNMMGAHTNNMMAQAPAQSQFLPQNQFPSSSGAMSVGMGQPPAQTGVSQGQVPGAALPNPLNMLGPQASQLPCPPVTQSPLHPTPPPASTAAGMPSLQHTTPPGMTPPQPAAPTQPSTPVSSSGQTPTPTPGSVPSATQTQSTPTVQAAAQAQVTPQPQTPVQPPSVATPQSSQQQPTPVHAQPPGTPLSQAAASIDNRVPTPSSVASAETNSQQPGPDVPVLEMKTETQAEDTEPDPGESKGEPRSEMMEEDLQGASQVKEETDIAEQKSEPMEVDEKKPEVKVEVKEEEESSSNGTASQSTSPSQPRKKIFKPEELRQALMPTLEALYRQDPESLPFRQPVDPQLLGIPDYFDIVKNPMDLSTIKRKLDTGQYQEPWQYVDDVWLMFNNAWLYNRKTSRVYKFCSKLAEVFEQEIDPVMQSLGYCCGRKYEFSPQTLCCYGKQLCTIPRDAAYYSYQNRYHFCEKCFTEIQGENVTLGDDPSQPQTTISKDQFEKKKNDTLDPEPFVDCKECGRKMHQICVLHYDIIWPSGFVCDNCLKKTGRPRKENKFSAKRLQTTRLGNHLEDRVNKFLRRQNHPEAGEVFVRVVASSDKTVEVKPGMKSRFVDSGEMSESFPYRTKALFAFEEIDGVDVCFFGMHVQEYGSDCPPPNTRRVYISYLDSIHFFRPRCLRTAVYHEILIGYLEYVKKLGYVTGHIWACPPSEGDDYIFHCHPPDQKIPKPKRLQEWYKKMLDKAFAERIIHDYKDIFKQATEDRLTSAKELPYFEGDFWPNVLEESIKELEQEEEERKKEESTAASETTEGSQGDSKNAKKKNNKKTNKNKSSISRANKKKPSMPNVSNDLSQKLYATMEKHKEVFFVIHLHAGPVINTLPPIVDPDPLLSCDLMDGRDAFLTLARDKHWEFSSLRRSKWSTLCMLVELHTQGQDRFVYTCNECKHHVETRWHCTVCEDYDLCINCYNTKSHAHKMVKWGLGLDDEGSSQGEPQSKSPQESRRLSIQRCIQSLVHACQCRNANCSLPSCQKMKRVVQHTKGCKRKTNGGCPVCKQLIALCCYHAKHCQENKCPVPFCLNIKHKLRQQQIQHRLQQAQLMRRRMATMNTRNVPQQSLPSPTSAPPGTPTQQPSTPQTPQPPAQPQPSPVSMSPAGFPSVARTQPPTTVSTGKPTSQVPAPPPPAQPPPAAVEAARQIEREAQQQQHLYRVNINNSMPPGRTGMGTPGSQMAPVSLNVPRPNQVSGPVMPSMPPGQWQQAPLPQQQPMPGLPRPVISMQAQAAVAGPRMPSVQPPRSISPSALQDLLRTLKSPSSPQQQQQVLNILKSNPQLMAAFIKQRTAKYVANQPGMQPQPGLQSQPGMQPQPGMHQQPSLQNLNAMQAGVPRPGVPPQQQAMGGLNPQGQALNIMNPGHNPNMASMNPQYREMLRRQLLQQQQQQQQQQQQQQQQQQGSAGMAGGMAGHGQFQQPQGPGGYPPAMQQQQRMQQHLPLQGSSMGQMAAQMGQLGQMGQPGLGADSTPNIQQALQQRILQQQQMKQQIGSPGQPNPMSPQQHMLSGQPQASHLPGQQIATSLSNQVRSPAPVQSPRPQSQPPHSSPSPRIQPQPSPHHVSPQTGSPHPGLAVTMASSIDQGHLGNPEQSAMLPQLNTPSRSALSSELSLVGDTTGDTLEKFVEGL
T1 sequence (Q09472 2-2414 limits assumed, other chains not shown): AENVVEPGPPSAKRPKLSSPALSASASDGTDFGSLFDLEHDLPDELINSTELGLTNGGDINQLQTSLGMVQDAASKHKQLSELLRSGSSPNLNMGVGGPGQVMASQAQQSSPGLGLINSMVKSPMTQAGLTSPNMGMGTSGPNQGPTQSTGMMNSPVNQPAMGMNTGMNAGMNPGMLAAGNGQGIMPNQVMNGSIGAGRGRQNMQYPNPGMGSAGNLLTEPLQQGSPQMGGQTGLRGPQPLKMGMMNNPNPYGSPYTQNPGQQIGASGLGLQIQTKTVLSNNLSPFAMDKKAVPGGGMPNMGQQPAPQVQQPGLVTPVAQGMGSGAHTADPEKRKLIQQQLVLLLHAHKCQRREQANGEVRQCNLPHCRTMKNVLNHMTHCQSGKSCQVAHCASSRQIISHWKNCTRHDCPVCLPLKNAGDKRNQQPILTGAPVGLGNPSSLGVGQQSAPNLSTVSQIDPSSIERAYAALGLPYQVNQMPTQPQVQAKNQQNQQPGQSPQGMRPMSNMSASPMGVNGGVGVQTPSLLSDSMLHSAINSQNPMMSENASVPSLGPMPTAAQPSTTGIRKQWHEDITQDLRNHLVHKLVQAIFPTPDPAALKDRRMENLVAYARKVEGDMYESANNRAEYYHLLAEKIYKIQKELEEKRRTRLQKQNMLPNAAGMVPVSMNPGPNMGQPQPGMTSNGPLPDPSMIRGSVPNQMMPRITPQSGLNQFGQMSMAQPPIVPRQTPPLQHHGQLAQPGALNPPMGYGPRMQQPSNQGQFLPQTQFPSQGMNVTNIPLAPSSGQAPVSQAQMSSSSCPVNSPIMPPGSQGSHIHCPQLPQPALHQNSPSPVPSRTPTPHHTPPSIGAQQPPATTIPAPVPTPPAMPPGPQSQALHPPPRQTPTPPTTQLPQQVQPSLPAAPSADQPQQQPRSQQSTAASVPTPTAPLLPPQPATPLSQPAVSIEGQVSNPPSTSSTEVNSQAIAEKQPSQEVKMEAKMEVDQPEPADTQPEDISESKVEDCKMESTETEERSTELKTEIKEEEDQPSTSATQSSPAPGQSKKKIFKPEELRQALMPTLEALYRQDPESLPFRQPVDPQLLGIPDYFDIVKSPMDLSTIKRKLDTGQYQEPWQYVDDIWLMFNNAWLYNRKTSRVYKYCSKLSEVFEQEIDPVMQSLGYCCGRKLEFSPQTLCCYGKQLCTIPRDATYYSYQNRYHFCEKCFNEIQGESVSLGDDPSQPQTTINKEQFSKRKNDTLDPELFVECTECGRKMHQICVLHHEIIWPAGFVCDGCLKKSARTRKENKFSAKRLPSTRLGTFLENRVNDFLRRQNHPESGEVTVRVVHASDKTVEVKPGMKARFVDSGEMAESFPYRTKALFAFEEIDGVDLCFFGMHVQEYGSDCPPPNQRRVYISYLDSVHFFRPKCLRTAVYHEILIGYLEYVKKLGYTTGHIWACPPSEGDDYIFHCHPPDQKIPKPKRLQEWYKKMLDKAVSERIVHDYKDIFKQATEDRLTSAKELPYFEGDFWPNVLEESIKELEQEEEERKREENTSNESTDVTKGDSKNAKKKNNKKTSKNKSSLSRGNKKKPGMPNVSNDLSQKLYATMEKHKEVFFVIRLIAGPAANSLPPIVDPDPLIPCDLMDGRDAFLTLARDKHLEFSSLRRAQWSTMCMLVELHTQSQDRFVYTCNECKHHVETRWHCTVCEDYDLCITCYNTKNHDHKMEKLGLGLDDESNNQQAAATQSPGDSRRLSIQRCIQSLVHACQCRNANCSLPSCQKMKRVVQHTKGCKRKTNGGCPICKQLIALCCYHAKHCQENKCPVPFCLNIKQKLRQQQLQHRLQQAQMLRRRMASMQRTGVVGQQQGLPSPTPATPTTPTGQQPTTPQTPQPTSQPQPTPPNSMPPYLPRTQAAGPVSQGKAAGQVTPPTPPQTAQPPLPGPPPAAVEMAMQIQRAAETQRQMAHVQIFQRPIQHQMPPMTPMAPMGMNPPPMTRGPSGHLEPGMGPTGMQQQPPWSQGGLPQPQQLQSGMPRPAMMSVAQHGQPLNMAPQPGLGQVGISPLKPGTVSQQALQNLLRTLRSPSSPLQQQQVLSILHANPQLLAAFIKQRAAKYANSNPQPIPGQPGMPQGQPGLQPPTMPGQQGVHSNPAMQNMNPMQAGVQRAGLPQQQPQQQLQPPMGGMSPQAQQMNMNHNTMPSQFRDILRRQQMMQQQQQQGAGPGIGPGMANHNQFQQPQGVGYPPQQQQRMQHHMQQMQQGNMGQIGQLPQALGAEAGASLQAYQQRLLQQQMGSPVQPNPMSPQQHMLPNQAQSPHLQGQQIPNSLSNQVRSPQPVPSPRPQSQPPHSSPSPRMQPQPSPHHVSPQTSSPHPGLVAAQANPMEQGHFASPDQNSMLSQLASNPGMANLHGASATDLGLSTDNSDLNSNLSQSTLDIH

## CNC(=O)COc1cc2cc(Nc3nc(N4CCC(C(=O)N5CCN(CCC(=O)N6CCC(n7nc(N8CCCc9cc(-c%10cnn(C)c%10)c(C(F)F)cc98)c8c7CCN(C(=O)NC)C8)CC6)CC5)CC4)ncc3Cl)cc(OC)c2n(C)c1=O [TCIP3]
DB
  IC50: 9.8 nM
p300
  p300 protein abundance log2(fold change): 0.37
CBP
  CBP protein abundance log2(fold change): 0.58
c-MYC mRNA
  t1/2 of c-MYC mRNA decrease: 33 min
